# Test results: patent US12240892B2, “Pharmaceutical composition comprising expression or activity inhibitor of c-src for preventing or treating synucleinopathy” (AJOU UNIVERSITY INDUSTRY-ACADEMIC COOPERATION FOUNDATION, priority 2018, dated 2025)
# Legend:
# [1] = system: SHSY5Y overexpressing A53T eGFP; assay: Amount of aggregated α-syn in differentiated cells overexpressing A53T eGFP, confocal microscopy; format: cell-based; details: for amount of α-syn aggregated in the cells: Src KD SHSY5Y overexpressing A53T eGFP, 50 μM retinoid acid, differentiated 5 days
# [2] = system: SHSY5Y cell line; assay: α-syn intercellular migration, two-chamber co-culture, immunostaining and confocal microscopy; format: cell-based; details: 0.1 μM saracatinib, 10 μM SKI; co-culture 12 hours with SHSY5Y overexpressing α-syn; vs PBS control
# Protocol: The SHSY5Y cell overexpressing alpha-synuclein was seeded at 4×10^4 in a 12-well plate in an insert well using a two-chamber system, and the SHSY5Y cell line was seeded at 4×10^4 on the cover glass. The next day, the insert well was transferred to a 12-well cover glass, and during co-culture for 12 hours, the SHSY5Y cell line was treated with 0.1 μM saracatinib and 10 μM SKI (c-src kinase inhibitor I), which are c-src inhibitors, and then alpha-synuclein in SHSY5Y cell line on the cover glass was immunostained (α-syn: red, nucleus: blue) and observed using a confocal microscope to confirm that alpha-synuclein was migrated from SHSY5Y overexpressing alpha-synuclein to SHSY5Y not overexpressing alpha-synuclein.
# Next, c-src knockdown SHSY5Y cell lines (KD #1 and KD #2), constructed using shRNAs of […], and dopaminergic neuronal cell line SHSY5Y overexpressing α-syn were co-cultured for 12 hours using a two-chamber system. The co-culture will be described in brief. SHSY5Y cells were seeded at a concentration of 4×10^4 cells/well on a 12-well cover glass. […]
Molecule,"amount of aggregated α-syn ([1]; 10 μM SKI, 0.5 μM saracatinib, differentiated with 50 μM RA)",migration of α-syn [2],amount of α-syn aggregated in the cells [1]
COc1cc2ncnc(Nc3ccc(Oc4ccccc4)cc3)c2cc1OC [SKI],decreased,reduced,–
SEQ ID NO: 1: shRNA against c-src: CCGGGCUCGGCUCAUUGAAGACAAUCUCGAGAUUGUCUUCAAUGAGCCGAGCUUUUUG,–,–,decreased
"SEQ ID NO: 2: shRNA against c-src: CCGGGACAGACCUGUCCUUCAAGAACUCGAGUUCUUGAAGGACAGGUCUGUCUUUUUG (listed as RNA, chemistry not fully specified)",–,–,decreased
